Test results reported in ChEMBL document CHEMBL2203235, “Optimization of a natural product-based class of γ-secretase modulators” (J Med Chem, 2012).

Tests used:
Liver microsomes = assay: Metabolic stability in human liver microsomes at 1 uM after 60 mins by LC/MS/MS analysis; settings: 1 h
[1] = Modulation of gamma secretase in CHO-2B7 cells assessed as reduction in amyloid beta 40 level after 5 hrs by MSD ELISA; format: cell-based; settings: Cricetulus griseus, CHO-2B7, 5 h
[2] = Modulation of gamma secretase in CHO-2B7 cells assessed as reduction in amyloid beta 42 level after 5 hrs by MSD ELISA; format: cell-based; settings: Cricetulus griseus, CHO-2B7, 5 h

| Structure (SMILES) | Stability (Liver microsomes) | IC50 [1] [µM] | IC50 [2] [µM] |
| --- | --- | --- | --- |
| CCO[C@@H]([C@H]1C[C@@H](C)[C@H]2[C@H](O1)[C@H](O)[C@@]1(C)[C@@H]3CC[C@H]4C(C)(C)[C@@H](OC(=O)N[C@@H]5CCNC5=O)CC[C@@]45C[C@@]35CC[C@]21C)C(C)(C)O | Stable | 2.5 | 0.14 |
| CCO[C@@H]([C@H]1C[C@@H](C)[C@H]2[C@H](O1)[C@H](O)[C@@]1(C)[C@@H]3CC[C@H]4C(C)(C)[C@@H](O[C@H]5CN(CCN6CCOCC6)CCO5)CC[C@@]45C[C@@]35CC[C@]21C)C(C)(C)O | Stable | 1.3 | 0.43 |
| CCO[C@@H]([C@H]1C[C@@H](C)[C@H]2[C@H](O1)[C@H](O)[C@@]1(C)[C@@H]3CC[C@H]4C(C)(C)[C@@H](OC(=O)NCCN(C)C)CC[C@@]45C[C@@]35CC[C@]21C)C(C)(C)O | Stable | 17 | 0.24 |
| CC(C)[C@@H](OC(=O)N1CCC1)[C@H]1C[C@@H](C)[C@H]2[C@H](O1)[C@H](O)[C@@]1(C)[C@@H]3CC[C@H]4C(C)(C)[C@@H](OC(=O)NCCCC(=O)O)CC[C@@]45C[C@@]35CC[C@]21C | Stable | 7.2 | 0.28 |
| CC(C)[C@@H](OC(=O)N1CCC1)[C@H]1C[C@@H](C)[C@H]2[C@H](O1)[C@H](O)[C@@]1(C)[C@@H]3CC[C@H]4C(C)(C)[C@@H](O[C@H]5CN(C(=O)CN6CCC6)CCO5)CC[C@@]45C[C@@]35CC[C@]21C | Stable | 7.7 | 0.11 |
| CCO[C@@H]([C@H]1C[C@@H](C)[C@H]2[C@H](O1)[C@H](O)[C@@]1(C)[C@@H]3CC[C@H]4C(C)(C)[C@@H](OC(=O)NC5COC5)CC[C@@]45C[C@@]35CC[C@]21C)C(C)(C)O | Stable | 5 | 0.14 |
| CCO[C@@H]([C@H]1C[C@@H](C)[C@H]2[C@H](O1)[C@H](O)[C@@]1(C)[C@@H]3CC[C@H]4C(C)(C)[C@@H](OC(=O)N5CCC5)CC[C@@]45C[C@@]35CC[C@]21C)C(C)(C)O | Stable | 5 | 0.14 |
| CC(=O)O[C@@H]([C@H]1C[C@@H](C)[C@H]2[C@H](O1)[C@H](O)[C@@]1(C)[C@@H]3CC[C@H]4C(C)(C)[C@@H](O)CC[C@@]45C[C@@]35CC[C@]21C)C(C)(C)O |  |  | 0.6 |
| CC(C)[C@@H](OC(=O)N1CCC1)[C@H]1C[C@@H](C)[C@H]2[C@H](O1)[C@H](O)[C@@]1(C)[C@@H]3CC[C@H]4C(C)(C)[C@@H](OC(=O)N5CC(O)C5)CC[C@@]45C[C@@]35CC[C@]21C | Stable | 8 | 0.35 |
| CCO[C@@H]([C@H]1C[C@@H](C)[C@H]2[C@H](O1)[C@H](O)[C@@]1(C)[C@@H]3CC[C@H]4C(C)(C)[C@@H](O[C@H]5CN(CCN6CCC6)CCO5)CC[C@@]45C[C@@]35CC[C@]21C)C(C)(C)O | Stable | 2.9 | 0.11 |
| CC(C)[C@@H](OC(=O)N1CCC1)[C@H]1C[C@@H](C)[C@H]2[C@H](O1)[C@H](O)[C@@]1(C)[C@@H]3CC[C@H]4C(C)(C)[C@@H](OC(=O)NCCNS(=O)(=O)C(F)(F)F)CC[C@@]45C[C@@]35CC[C@]21C | Stable | 11 | 1.5 |
| CCO[C@@H]([C@H]1C[C@@H](C)[C@H]2[C@H](O1)[C@H](O)[C@@]1(C)[C@@H]3CC[C@H]4C(C)(C)[C@@H](O[C@H]5CN(C(=O)CC6CN(C)C6)CCO5)CC[C@@]45C[C@@]35CC[C@]21C)C(C)(C)O | Stable | 3.1 | 0.15 |
| CC(C)C(=O)N1CCO[C@@H](O[C@H]2CC[C@]34C[C@]35CC[C@]3(C)[C@@H]6[C@H](O[C@@H]([C@H](OC(=O)N7CCC7)C(C)C)C[C@H]6C)[C@H](O)[C@@]3(C)[C@@H]5CC[C@H]4C2(C)C)C1 | Stable | 11 | 0.4 |
| CCO[C@@H]([C@H]1C[C@@H](C)[C@H]2[C@H](O1)[C@H](O)[C@@]1(C)[C@@H]3CC[C@H]4C(C)(C)[C@@H](O[C@H]5CN(CC(=O)N6CCOCC6)CCO5)CC[C@@]45C[C@@]35CC[C@]21C)C(C)(C)O | Stable | 14 | 0.23 |
| CCO[C@@H]([C@H]1C[C@@H](C)[C@H]2[C@H](O1)[C@H](O)[C@@]1(C)[C@@H]3CC[C@H]4C(C)(C)[C@@H](O[C@H]5CN(CC)CCO5)CC[C@@]45C[C@@]35CC[C@]21C)C(C)(C)O | Stable | 2.7 | 0.21 |
| CC(C)[C@@H](OC(=O)N1CCC1)[C@H]1C[C@@H](C)[C@H]2[C@H](O1)[C@H](O)[C@@]1(C)[C@@H]3CC[C@H]4C(C)(C)[C@@H](OC(=O)N[C@H]5CCCNC5=O)CC[C@@]45C[C@@]35CC[C@]21C | Stable | 6.4 | 0.28 |

| Structure (SMILES) | Stability (Liver microsomes) | IC50 [1] [µM] | IC50 [2] [µM] |
| --- | --- | --- | --- |
| C[C@@H]1C[C@H]([C@H](O)C(C)(C)O)O[C@H]2[C@H]1[C@@]1(C)CC[C@@]34C[C@@]35CC[C@H](OC(=O)N3CCC3)C(C)(C)[C@@H]5CC[C@H]4[C@]1(C)[C@H]2O |  |  | 13 |
| C[C@@H]1C[C@H]([C@H](O)C(C)(C)O)O[C@H]2[C@H]1[C@@]1(C)CC[C@@]34C[C@@]35CC[C@H](OC(=O)NC3CN6CCC3CC6)C(C)(C)[C@@H]5CC[C@H]4[C@]1(C)[C@H]2O (stereo partly specified) |  |  | 0.58 |
| CCO[C@@H]([C@H]1C[C@@H](C)[C@H]2[C@H](O1)[C@H](O)[C@@]1(C)[C@@H]3CC[C@H]4C(C)(C)[C@@H](O[C@H]5CN(CCO)CCO5)CC[C@@]45C[C@@]35CC[C@]21C)C(C)(C)O | Stable | 3.7 | 0.26 |
| CCO[C@@H]([C@H]1C[C@@H](C)[C@H]2[C@H](O1)[C@H](O)[C@@]1(C)[C@@H]3CC[C@H]4C(C)(C)[C@@H](OC(=O)N5CCN(CC(=O)O)CC5)CC[C@@]45C[C@@]35CC[C@]21C)C(C)(C)O | Stable | 10 | 0.29 |
| CC(C)[C@@H](OC(=O)N1CCC1)[C@H]1C[C@@H](C)[C@H]2[C@H](O1)[C@H](O)[C@@]1(C)[C@@H]3CC[C@H]4C(C)(C)[C@@H](OC(=O)NCC(=O)O)CC[C@@]45C[C@@]35CC[C@]21C | Stable | 7.2 | 0.42 |
| CC(C)[C@@H](OC(=O)N1CCC1)[C@H]1C[C@@H](C)[C@H]2[C@H](O1)[C@H](O)[C@@]1(C)[C@@H]3CC[C@H]4C(C)(C)[C@@H](OC(=O)N5CC(NCC(F)(F)F)C5)CC[C@@]45C[C@@]35CC[C@]21C | Stable | 11 | 0.75 |
| CCO[C@@H]([C@H]1C[C@@H](C)[C@H]2[C@H](O1)[C@H](O)[C@@]1(C)[C@@H]3CC[C@H]4C(C)(C)[C@@H](OC(=O)NC5CN(C)C5)CC[C@@]45C[C@@]35CC[C@]21C)C(C)(C)O | Stable | 0.98 | 0.065 |
| CC(C)[C@@H](OC(=O)N1CCC1)[C@H]1C[C@@H](C)[C@H]2[C@H](O1)[C@H](O)[C@@]1(C)[C@@H]3CC[C@H]4C(C)(C)[C@@H](O[C@H]5CN(CCCC(=O)O)CCO5)CC[C@@]45C[C@@]35CC[C@]21C | Stable | 7.5 | 0.28 |
| CC(C)[C@@H](OC(=O)N1CCC1)[C@H]1C[C@@H](C)[C@H]2[C@H](O1)[C@H](O)[C@@]1(C)[C@@H]3CC[C@H]4C(C)(C)[C@@H](O[C@H]5CN([C@@H]6CCNC6=O)CCO5)CC[C@@]45C[C@@]35CC[C@]21C | Stable | 15 | 0.49 |
| CCO[C@@H]([C@H]1C[C@@H](C)[C@H]2[C@H](O1)[C@H](O)[C@@]1(C)[C@@H]3CC[C@H]4C(C)(C)[C@@H](OC(=O)N5CC[C@@H](C(=O)O)C5)CC[C@@]45C[C@@]35CC[C@]21C)C(C)(C)O | Stable | 14 | 0.54 |
| CC(C)[C@@H](OC(=O)N1CCC1)[C@H]1C[C@@H](C)[C@H]2[C@H](O1)[C@H](O)[C@@]1(C)[C@@H]3CC[C@H]4C(C)(C)[C@@H](OC(=O)NC5CN(C)C5)CC[C@@]45C[C@@]35CC[C@]21C | Stable | 6.5 | 0.17 |
| CCO[C@@H]([C@H]1C[C@@H](C)[C@H]2[C@H](O1)[C@H](O)[C@@]1(C)[C@@H]3CC[C@H]4C(C)(C)[C@@H](OC(=O)N[C@H]5CCNC5=O)CC[C@@]45C[C@@]35CC[C@]21C)C(C)(C)O | Stable | 2.9 | 0.19 |
| CNC(=O)O[C@H]1CC[C@]23C[C@]24CC[C@]2(C)[C@@H]5[C@H](O[C@@H]([C@H](OC(=O)N6CCC6)C(C)C)C[C@H]5C)[C@H](O)[C@@]2(C)[C@@H]4CC[C@H]3C1(C)C | Stable | 8.7 | 0.76 |
| CCO[C@@H]([C@H]1C[C@@H](C)[C@H]2[C@H](O1)[C@H](O)[C@@]1(C)[C@@H]3CC[C@H]4C(C)(C)[C@@H](O[C@H]5CN(C(=O)CC6CNC6)CCO5)CC[C@@]45C[C@@]35CC[C@]21C)C(C)(C)O | Stable | 2.5 | 0.12 |
| C[C@@H]1C[C@H]([C@H](O)C(C)(C)O)O[C@H]2[C@H]1[C@@]1(C)CC[C@@]34C[C@@]35CC[C@H](OC(=O)N3CCOCC3)C(C)(C)[C@@H]5CC[C@H]4[C@]1(C)[C@H]2O |  |  | 9 |
| C[C@@H]1C[C@H]([C@H](O)C(C)(C)O)O[C@H]2[C@H]1[C@@]1(C)CC[C@@]34C[C@@]35CC[C@H](OC(=O)NCCN(C)C)C(C)(C)[C@@H]5CC[C@H]4[C@]1(C)[C@H]2O |  |  | 5.7 |
